Source: patent EP4592296A1, “NOVEL TETRAHETEROCYCLE COMPOUND” (Idience Co., Ltd., priority 2022, dated 2024)

What was measured:
[1] = system: AsPC-1 pancreatic cancer (KRAS G12D mutation) cells; assay: Cell proliferation assay (CellTiter-Glo cell viability); assay type: cell-based; conditions: AsPC-1 cells, CellTiter-Glo 2.0
Protocol: (§1) Cell viability test of test compounds in AsPC-1 pancreatic cancer (KRAS G12D mutation) or SW480 colon cancer (KRAS G12V mutation) cells for 72 hours
(§2) The reference compound Staurosporine was purchased from Sigma-Aldrich (Saint Louis, […]), and CellTiter-Glo® 2.0 Luminescent cell viability assay reagent (cat# G9243) was purchased from Promega (Madison, WI). AsPC-1 and SW480 cell lines were purchased from the American Type Culture Collection (Manassas, VA). AsPC-1 cells were cultured in RPMI-1640 (ATCC, cat#30-2001), and SW480 cells were cultured in DMEM (ATCC cat#30-2002), supplemented with 10% FBS (Sigma-Aldrich, cat#F2442) and 100 µg/mL penicillin-streptomycin (Sigma-Aldrich, cat#P4333). Cells were cultured at 37 °C in a humidified atmosphere of 5 % CO2 and 95 % air.
(§3) • 1. The test compound and reference compound Staurosporine were dissolved in DMSO solution to prepare 20 mM (test compound) and 10 mM (reference compound Staurosporine) in the Source Plate, and diluted 3-fold and 10 doses with DMSO. • 2. Ten volumes of 125 nL test compound or 25 nL reference compound from the Source Plate were dispensed into wells of a 384-well culture plate (VWR, cat#82050-076) using an Echo 655. • 3. 25 µL of culture medium including 2000 AsPC-1 or SW480 cells was dispensed into each 384-well cell culture plate. • 4. Cells were cultured with compounds at 37 °C, 5 % CO2for 72 hours. • 5. 25 µL of CellTiter-Glo 2.0 reagent was added to each well of the plate. • 6. The contents were mixed in an orbital shaker for 2 minutes and the luminescence signal was stabilized at room temperature for 15 minutes. • 7. Luminescence signals were measured with an Envision 2104 Multilabel Reader (PerkinElmer, Santa Clara, CA), and the number of viable cells was determined by quantifying the ATP present in each culture medium. • 8. IC50 values were calculated based on the sigmoidal dose-response equation in the GraphPad Prism 4 program.

KRAS^G12D = biological target: T1, KRAS^G12D (Homo sapiens, UniProt P01116, G12D); assay: KRAS nucleotide exchange assay (SOS1-mediated, HTRF); assay type: biochemical; conditions: KRAS 20 nM, SOS1 12.5 nM, labeled GTP 0.15 µM, 60 min preincubation
T1 construct: GST-tagged KRAS WT or mutant proteins (amino acids 2-169)
T1 sequence (P01116 2-169 isoform P01116-2 G12D): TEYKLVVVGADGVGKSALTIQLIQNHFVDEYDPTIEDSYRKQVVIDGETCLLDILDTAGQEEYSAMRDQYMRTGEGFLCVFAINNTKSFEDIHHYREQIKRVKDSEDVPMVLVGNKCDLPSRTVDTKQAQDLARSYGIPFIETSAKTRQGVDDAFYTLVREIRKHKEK
Description: (§4) Evaluation of the inhibitory effect of compounds on SOS1-mediated nucleotide exchange activity of KRAS^WT, KRAS^G12D, and KRAS^G12V mutants
(§5) A method to monitor SOS1-mediated exchange of unlabeled KRAS-bound GDP and fluorescently labeled GTP, based on energy transfer between the donor Tb cryptate-labeled GST antibody and the acceptor DY-647P1 GTP when they are in close proximity.
(§6) • GST-tagged KRAS WT or mutant proteins (amino acids 2-169), • SOS1(amino acids 564-1049), • Labeled GTP (GTP-DY-647P1), • Assay Buffer (20 mM HEPES pH 7.4, 150 mM NaCl, 5 mM MgCl2, 1 mM DTT, 0.05% BSA, 0.0025% NP40)
(§7) • 1. KRAS protein was diluted with assay buffer to 1.5 times the final concentration, mixed with Tb cryptate anti-GST antibody, and 10 µL was added to each assay well (final concentration was 20 nM for KRAS^WT, KRAS^G12D, and KRAS^G12V). • 2. The compound was dissolved in DMSO and then diluted to prepare 100 times the final concentration. • 3. Compounds were dispensed into assay wells using an ECHO acoustic dispenser (Beckman), gently mixed with the KRAS/Ab mixture, and incubated for 60 minutes. • 4. SOS1 and labeled GTP were mixed and diluted to 3 times the final concentration with assay buffer, and 5 µL of the solution was added to the assay well to initiate the reaction (final concentration of labeled GTP was 0.15 µM, final concentration of SOS1 was 7.5 nM in WT, 12.5 nM in G12D, and 50 nM in G12V). Blank wells contained only assay buffer and labeled GTP. • 5. The reaction was monitored at Ex/Em=(337/665; 337/620) using a Pherastar Plate Reader (BMG). • 6. The HTRF signal was analyzed approximately 25 minutes after the start of the reaction (G12V reacted for 60 minutes). • 7. Nucleotide exchange activity was expressed as a percentage difference compared to the DMSO reaction value, and the IC50 value was calculated based on the four-parameter logistic equation in GraphPad 4.0 software. HTRF signal = ems 665/ems 620∗10000 [formula]

KRAS^WT = biological target: T2, KRAS^WT (Homo sapiens, UniProt P01116); assay: as above; assay type: biochemical; conditions: KRAS 20 nM, SOS1 7.5 nM, labeled GTP 0.15 µM
T2 construct: GST-tagged KRAS WT or mutant proteins (amino acids 2-169)
T2 sequence (P01116 2-169 isoform P01116-2): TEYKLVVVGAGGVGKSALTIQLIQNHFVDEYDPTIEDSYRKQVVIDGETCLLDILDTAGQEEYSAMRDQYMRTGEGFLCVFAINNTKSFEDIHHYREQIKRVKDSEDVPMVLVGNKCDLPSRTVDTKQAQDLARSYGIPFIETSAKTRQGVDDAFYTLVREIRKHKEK
Description: as §4, §5, §6, §7

[2] = system: SW480 colon cancer (KRAS G12V mutation) cells; assay: Cell proliferation assay (CellTiter-Glo cell viability); assay type: cell-based; conditions: Homo sapiens, 72 hours, CellTiter-Glo 2.0
Protocol: as §1, §2, §3

KRAS^G12V = biological target: T3, KRAS^G12V (Homo sapiens, UniProt P01116, G12V); assay: KRAS nucleotide exchange assay (SOS1-mediated, HTRF); assay type: biochemical; conditions: KRAS 20 nM, SOS1 50 nM, labeled GTP 0.15 µM, reacted 60 minutes
T3 construct: GST-tagged KRAS WT or mutant proteins (amino acids 2-169)
T3 sequence (P01116 2-169 isoform P01116-2 G12V): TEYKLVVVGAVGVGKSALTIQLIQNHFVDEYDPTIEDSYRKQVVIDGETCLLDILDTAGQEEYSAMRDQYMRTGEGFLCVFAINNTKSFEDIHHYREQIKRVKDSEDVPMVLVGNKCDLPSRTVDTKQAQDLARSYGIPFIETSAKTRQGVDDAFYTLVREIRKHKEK
Description: as §4, §5, §6, §7

KRAS G12C = biological target: T4, KRAS G12C (Homo sapiens, UniProt P01116, G12C); assay: as above; assay type: biochemical; conditions: conditions for G12C not described
T4 construct: GST-tagged KRAS WT or mutant proteins (amino acids 2-169)
T4 sequence (P01116 2-169 isoform P01116-2 G12C): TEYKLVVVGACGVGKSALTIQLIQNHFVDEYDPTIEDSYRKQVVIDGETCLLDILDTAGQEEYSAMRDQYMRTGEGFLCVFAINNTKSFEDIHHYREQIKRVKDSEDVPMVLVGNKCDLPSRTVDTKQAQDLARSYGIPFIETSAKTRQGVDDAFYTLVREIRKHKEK

KRAS G13D = biological target: T5, KRAS G13D (Homo sapiens, UniProt P01116, G13D); assay: as above; assay type: biochemical; conditions: conditions for G13D not described
T5 construct: GST-tagged KRAS WT or mutant proteins (amino acids 2-169)
T5 sequence (P01116 2-169 isoform P01116-2 G13D): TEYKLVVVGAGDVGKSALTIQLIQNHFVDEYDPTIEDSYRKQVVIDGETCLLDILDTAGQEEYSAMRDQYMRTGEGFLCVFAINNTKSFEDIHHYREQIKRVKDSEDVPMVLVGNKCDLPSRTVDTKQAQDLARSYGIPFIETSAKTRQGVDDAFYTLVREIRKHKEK

SMILES | IC50 ([1]; Homo sapiens, ASPC1, 72 h) | IC50 (KRAS^G12D) | further results
N#Cc1c(N)sc2c(F)ccc(-c3c(Cl)c4c5c(nc(OC[C@@]67CCCN6C[C@H](F)C7)nc5c3F)N3CCCOC[C@H]3CO4)c12 (single isomer, unassigned) [Example 12a] | – | – | IC50 ([1]; 72 hours): 2000 to 20000 nM
N#Cc1c(N)sc2c(F)ccc(-c3c(Cl)c4c5c(nc(OC[C@@]67CCCN6C[C@H](F)C7)nc5c3F)N3CCCOC[C@H]3CO4)c12 (single isomer, unassigned) [Example 12b] | < 2000 nM | – | –
CCc1c(F)ccc2cc(O)cc(-c3nc4c5c(nc(OC[C@@]67CCCN6C[C@H](F)C7)nc5c3F)N3CCNC[C@@H]3CCO4)c12 [Example 1, 5-ethyl-6-fluoro-4-((S)-1-fluoro-12-(((2R,7aS)-2-fluorotetrahydro-1H-pyrrolizin-7a(5H)-yl)methoxy)-6,6a,7,8,9,10-hexahydro-5H-4-oxa-3,8,10a,11,13-pentaazabenzo[4,5]cycloocta[1,2,3-de]naphthalen-2-yl)naphthalen-2-ol] | > 20000 nM | 5.95 nM | IC50 (KRAS^WT): 6.5 nM
C#Cc1c(F)ccc2cc(O)cc(-c3nc4c5c(nc(OC[C@@]67CCCN6C[C@H](F)C7)nc5c3F)N3CCNC[C@@H]3CCO4)c12 [Example 2, 5-ethynyl-6-fluoro-4-((S)-1-fluoro-12-(((2R,7aS)-2-fluorotetrahydro-1H-pyrrolizin-7a(5H)-yl)methoxy)-6,6a,7,8,9,10-hexahydro-5H-4-oxa-3,8,10a,11,13-pentaazabenzo[4,5]cycloocta[1,2,3-de]naphthalen-2-yl)naphthalen-2-ol] | > 20000 nM | 2.75 nM | IC50 [2]: > 20000 nM; IC50 (KRAS^G12V): 2.89 nM
Nc1nc2c(-c3c(Cl)c4c5c(nc(OC[C@@]67CCCN6C[C@H](F)C7)nc5c3F)N3CCNC[C@@H]3CCO4)ccc(F)c2s1 [Example 3, 4-((14aS)-11-chloro-9-fluoro-7-(((2R,7aS)-2-fluorotetrahydro-1H-pyrrolizin-7a(5H)-yl)methoxy)-1,3,4,13,14,14a-hexahydro-2H-pyrazino[1',2':5,6][1,5]oxazocino[4,3,2-de]quinazolin-10-yl)-7-fluorobenzo[d]thiazol-2-amine] | 2000 to 20000 nM | 7.84 nM | –
Oc1cc(Cl)c(C2CC2)c(-c2nc3c4c(nc(OCC56CCCN5CC(F)C6)nc4c2F)N2CCNCC2CCO3)c1 [Example 4, 3-chloro-4-cyclopropyl-5-((S)-1-fluoro-12-(((2R,7aS)-2-fluorotetrahydro-1H-pyrrolizin-7a(5H)-yl)methoxy)-6,6a,7,8,9,10-hexahydro-5H-4-oxa-3,8,10a,11,13-pentaazabenzo[4,5]cycloocta[1,2,3-de]naphthalen-2-yl)phenol] | – | 52.5 nM | –
CCc1c(F)ccc2cc(O)cc(-c3nc4c5c(nc(OC[C@@]67CCCN6C[C@H](F)C7)nc5c3F)N3CCNC[C@@H]3CC(C)O4)c12 (stereo partly drawn) [Example 5, 5-ethyl-6-fluoro-4-((6aS)-1-fluoro-12-(((2R,7aS)-2-fluorotetrahydro-1H-pyrrolizin-7a(5H)-yl)methoxy)-5-methyl-6,6a,7,8,9,10-hexahydro-5H-4-oxa-3,8,10a,11,13-pentaazabenzo[4,5]cycloocta[1,2,3-de]naphthalen-2-yl)naphthalen-2-ol] | – | 12.5 nM | –
Nc1nc2c(-c3c(Cl)c4c5c(nc(OC[C@@]67CCCN6C[C@H](F)C7)nc5c3F)N3CCCCCC3CO4)ccc(F)c2s1 (stereo partly drawn) [Example 6, 4-(3-chloro-1-fluoro-13-(((2R,7aS)-2-fluorotetrahydro-1H-pyrrolizin-7a(5H)-yl)methoxy)-5a,6,7,8,9,10-hexahydro-5H-azepino[2',1':3,4][1,4]oxazepino[5,6,7-de]quinazolin-2-yl)-7-fluorobenzo[d]thiazol-2-amine] | < 2000 nM | 5.9 nM | IC50 (KRAS G12C): 2.36 nM; IC50 (KRAS^G12V): 5.9 nM; IC50 (KRAS G13D): 11.1 nM
Nc1nc2c(-c3c(Cl)c4c5c(nc(OC[C@@]67CCCN6C[C@H](F)C7)nc5c3F)N3CCCOC[C@H]3CO4)ccc(F)c2s1 [Example 7, 4-((14aS)-12-chloro-10-fluoro-8-(((2R,7aS)-2-fluorotetrahydro-1H-pyrrolizin-7a(5H)-yl)methoxy)-4,5,14,14a-tetrahydro-1H,3H-[1,4]oxazepino[3',4':3,4][1,4]oxazepino[5,6,7-de]quinazolin-11-yl)-7-fluorobenzo[d]thiazol-2-amine] | < 2000 nM | – | –
N#Cc1c(N)sc2c(F)ccc(-c3c(Cl)c4c5c(nc(OC[C@@]67CCCN6C[C@H](F)C7)nc5c3F)N3CCCCC[C@@H]3CO4)c12 [Example 11a, 2-amino-4-(3-chloro-1-fluoro-13-(((2R,7aS)-2-fluorotetrahydro-1H-pyrrolizin-7a(5H)-yl)methoxy)-5a,6,7,8,9,10-hexahydro-5H-azepino[2',1':3,4][1,4]oxazepino[5,6,7-de]quinazolin-2-yl)-7-fluorobenzo[b]thiophene-3-carbonitrile] | 2000 to 20000 nM | – | –
N#Cc1c(N)sc2c(F)ccc(-c3c(Cl)c4c5c(nc(OC[C@@]67CCCN6C[C@H](F)C7)nc5c3F)N3CCCCC[C@H]3CO4)c12 [Example 11b, 2-amino-4-(3-chloro-1-fluoro-13-(((2R,7aS)-2-fluorotetrahydro-1H-pyrrolizin-7a(5H)-yl)methoxy)-5a,6,7,8,9,10-hexahydro-5H-azepino[2',1':3,4][1,4]oxazepino[5,6,7-de]quinazolin-2-yl)-7-fluorobenzo[b]thiophene-3-carbonitrile] | < 2000 nM | – | –
